Here are results for one compound from US20260144797A1, “METHODS OF REDUCING OR PREVENTING METASTASES” (FOGHORN THERAPEUTICS INC., priority 2022, published 2026).

Holding throughout (assay type): in vivo
Experiment [1] concerns uveal melanoma (UM) CDX models MP-41 and MP-46. The experiment is described as follows: Differential gene expression by RNA-seq in UM CDX models (Example 1). As to conditions: MP-41 and MP-46 CDX; 0.5-3 mpk QD or BID; 5 days; RNA-seq (FIG. 3). How it is done: Uveal melanoma can be classified into Class 1 or Class 2 tumors based on the DecisionDx®-UM gene expression profiling (GEP) test, a widely used prognostic test to predict individual risk of metastasis in patients with uveal melanoma. Class 1 and 2 tumors are associated with low and high risk of metastasis, respectively. Gene expression profiling (GEP) Class 2 (dark blue), GEP Class 1 (light blue), PRAME (green), and BAP1 (orange) expression were measured in three uveal melanoma (UM) CDX models: 92-1, MP-41, and MP-46 (FIG. 2). GEP class 1 and GEP class 2 are defined in FIG. 1.
Differential gene expression was measured by RNA-seq in two uveal melanoma (UM) CDX models: MP-41 and MP-46 (FIG. 3). UM CDX model MP-41 was divided into four cohorts—cohort one was treated with 0.5 mpk of Compound A twice a day (BID), cohort two was treated with 1 mpk of Compound A once a day (QD), cohort three was treated with 1 mpk of Compound A twice a day, and cohort 4 was treated with 2 mpk of Compound A once a day. UM CDX model MP-46 was divided into six cohorts —cohort one was treated with 0.5 mpk of Compound A twice a day (BID), cohort two was treated with 1 mpk of Compound A once a day (QD), cohort three was treated with 0.75 mpk of Compound A twice a day, cohort 4 was treated with 1.5 mpk of Compound A once a day, cohort five was treated with 1.5 mpk of Compound A twice a day, and cohort six was treated with 3 mpk of Compound A twice a day. All treatments ended at 5 days, and animals were sacrificed. GEP Class 1 (green) comprises 8 genes that are high in Class 1 (low risk), and GEP Class 2 (blue) comprises 4 genes that are high in Class 2 (higher risk). PRAME (grey) positivity is associated with poor prognosis in several malignancies, including UM.

Experiment [2] concerns uveal melanoma (UM) CDX model MP-41. The experiment is described as follows: Differential gene expression by RNA-seq in UM CDX model MP-41 (Example 2). As to conditions: MP-41 CDX; 0.5-2 mpk QD or BID; 4 or 5 days; RNA-seq (FIG. 4). How it is done: Differential gene expression was measured by RNA-seq in uveal melanoma (UM) CDX model: MP-41 (FIG. 4). This CDX model is a BAP1 intact but aggressive uveal melanoma model. UM CDX model MP-41 was divided into four cohorts—cohort one was treated with 0.5 mpk of Compound A twice a day (BID), cohort two was treated with 1 mpk of Compound A once a day (QD), cohort three was treated with 1 mpk of Compound A twice a day, and cohort 4 was treated with 2 mpk of Compound A once a day. All treatments ended at 4 or 5 days, and animals were sacrificed.

In experiment [3] the test system is uveal melanoma (UM) CDX models 92-1, MP-41, and MP-46. The experiment is described as follows: Differential gene expression by RNA-seq, MITF/SOX10 pathway (Example 3). Conditions: 92.1 and MP-46: 1.5 mpk QD, 6 days; MP-41: 2 mpk daily, 4 days; RNA-seq (FIG. 5). How it is done:
Differential gene expression was measured by RNA-seq in three uveal melanoma (UM) CDX models: 92-1, MP-41, and MP-46 (FIG. 5 and FIG. 6). UM CDX models 92.1 and MP-46 were treated with 1.5 mpk of Compound A, daily (QD), for 6 days, and then animals were sacrificed (FIG. 5). UM CDX model MP-41 was treated with 2 mpk of Compound A, daily, for 4 days, and then animals were sacrificed (FIG. 5). Expression of SOX10, MITF (PD markers) and their downstream targets: melanin pathway markers MLANA, PMEL, and TYR were analyzed. Cyclin D1 is a cell proliferation marker, and BRM and BRG1 were analyzed for candidate selection.

For a further experiment, the system named is MP-41 CDX tumor. The experiment is described as follows: Immunohistochemistry of MP-41 CDX tumor slices. The method, then:
Representative MP-41 CDX tumor slices were analyzed after 5 days of treatment with 2 mpk of Compound A (OnTx) or a Vehicle (Veh), administered daily (FIGS. 7A and 7B).

[4] abbreviates: MP-41 xenograft studies (FIGS. 7A and 7B).

As for `COC[C@@H](NC(=O)c1ccn(S(C)(=O)=O)c1)C(=O)Nc1nc(-c2cccc(N3C[C@@H](C)O[C@@H](C)C3)n2)cs1` (stereo in doubt) [Compound A, N-(1-((4-(6-(2,6-dimethylmorpholino)pyridin-2-yl)thiazol-2-yl)amino)-3-methoxy-1-oxopropan-2-yl)-1-(methylsulfonyl)-1H-pyrrole-3-carboxamide], in experiment [1], the “DecisionDx-UM Gene Expression Profile (GEP)” value is recorded as “positive shift”, the PRAME expression entry was “decrease” and the “higher risk profile Class 2 genes expression” value was “decrease”. Further, in experiment [2], the BAP1 expression result is “subtle upregulation”, the GDF15 expression entry is given as “dose-dependent downregulation” and the PROS1 expression entry is on record as “dose-dependent downregulation”. Besides, in experiment [3], the MITF expression result is reported as “sustained downregulation”; the SOX10 expression result is given as “sustained downregulation”; the “melanoma-specific downstream targets of MITF and SOX10, expression” value is listed as “sustained downregulation”. The “proliferation marker Cyclin D1 (IHC)” value in the experiment on MP-41 CDX tumor (MP-41 CDX, 2 mpk daily, 5 days (FIGS. 7A and 7B)) is given as “decreases with treatment”. In the experiment with MP-41 CDX tumor (setting [4]), the “melanin pathway markers downstream of MITF/SOX10 signaling (IHC)” value is “Decrease” and the “proliferation markers (IHC)” value is on record as “Decrease”.
